Experimental data taken from patent US12195427B2, “MASP-2 inhibitors and methods of use” (priority 2018, dated 2025).
Where a name gives a salt, the structure may show the parent alone. Blank lines part the entries; values can stand above or below the compound they belong to.

Biological target: MASP-2 CCP2-SP (Homo sapiens (Human), UniProt O00187)
Test: MASP-2 co-crystallization, X-ray crystallography and structure analysis (H-bonds, van der Waals contacts);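 as to Ligand-pharmacophore element distance, pharmacophore element C2: distance from averaged pharmacophore element to bound ligand; missing value means element absent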;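 as to Ligand-pharmacophore element distance, pharmacophore element C3: distance from averaged pharmacophore element to bound ligand; missing value means element absent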;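 as to Ligand-pharmacophore element distance, pharmacophore element C4: distance from averaged pharmacophore element to bound ligand; missing value means element absent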;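 as to Ligand-pharmacophore element distance, pharmacophore element C5: distance from averaged pharmacophore element to bound ligand; missing value means element absent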
Design: van der Waals contact distance, MASP-2 HIS 483 atom CD2 / van der Waals contact distance, MASP-2 HIS 483 atom NE2 / van der Waals contact distance, SER 654 C to compound atom / van der Waals contact distance, SER 654 O to compound atom / van der Waals contact distance, TRP 655 C to compound atom / van der Waals contact distance, MASP-2 GLY 528 atom CA / van der Waals contact distance TRP 655 atom CZ3 / van der Waals contact distance TRP 655 atom N / van der Waals contact distance TRP 655 atom CE3 / van der Waals contact distance GLY 656 atom C / van der Waals contact distance GLY 656 atom CA / van der Waals contact distance GLY 656 atom O / van der Waals contact distance, MASP-2 TYR 607 atom CD1 / van der Waals contact distance, MASP-2 PRO 606 atom O / d(C3,CA1) / d(CA1,N1)2 / d(H4,O1) / d(H4,O2) / d(O1,O2) / d(CA1,O2) / d(CA6,O1) / d(CA6,O2) / d(CA1,C5) / d(O2,H3) / d(N2,C2) / d(CA5,N2) / d(N2,C4) / d(N2,C6) / d(N2,CA3) / d(N2,O3) / d(O4,H2): unit not given beside the values
Conditions: for H-bond distance to MASP-2 ASP 627 atom OD2: ASP 627 OD2; for H-bond distance to MASP-2 GLY 656 atom N: GLY 656 N; for H-bond distance to MASP-2 GLY 656 atom O: GLY 656 O; for H-bond distance to MASP-2 SER 654 atom O: SER 654 O; for H-bond distance to MASP-2 SER 657 atom O: SER 657 O; for van der Waals contact distance TRP 655 atom CE3 / van der Waals contact distance TRP 655 atom CZ3 / van der Waals contact distance TRP 655 atom N: Table A2-13; for van der Waals contact distance TRP 655 atom CE3: MASP-2 TRP 655 CE3, compound atom in line below; for van der Waals contact distance TRP 655 atom CZ3: MASP-2 TRP 655 CZ3; for van der Waals contact distance TRP 655 atom N: MASP-2 TRP 655 N; for Ligand-pharmacophore element distance, pharmacophore element C2 / Ligand-pharmacophore element distance, pharmacophore element C3 / Ligand-pharmacophore element distance, pharmacophore element C4 / Ligand-pharmacophore element distance, pharmacophore element C5 / Ligand-pharmacophore element distance, pharmacophore element C6 / Ligand-pharmacophore element distance, pharmacophore element C7 / Ligand-pharmacophore element distance, pharmacophore element CA1 / Ligand-pharmacophore element distance, pharmacophore element CA2 / Ligand-pharmacophore element distance, pharmacophore element CA3 / Ligand-pharmacophore element distance, pharmacophore element CA4 / Ligand-pharmacophore element distance, pharmacophore element CA5 / Ligand-pharmacophore element distance, pharmacophore element CA6: Table A4-1; for d(N2,CA2) / d(O2,H3) / d(O2,N2) / d(N2,C2): Table A5-2 pharmacophore distance, S3/S4 region; for a(N1, CA1, O1) b): Methyl-amino-pyridine compounds; for a(O1, O2, H3) / a(O1, O2, N2) / a(O2, N2, CA2) / a(O2, N2, C2): Table A6-2 pharmacophore angle
Outline: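 Inhibitor complexes were obtained by soaking crystals of E. coli-expressed human MASP-2 CCP2-SP constructs, then flash-cooling in liquid nitrogen. Structures solved by molecular replacement (1Q3X search model) from synchrotron diffraction; where several poses existed, only one was analyzed, and nonbonded contacts listed can include H-bonds.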

[1] = Table A5-1 pharmacophore: distance between elements, S2/S1 region
[2] = Table A7-1, between pharmacophore elements of the bound compound
[3] = Table A7-2, between pharmacophore elements of the bound compound

Sequence of MASP-2 CCP2-SP (O00187 445-686): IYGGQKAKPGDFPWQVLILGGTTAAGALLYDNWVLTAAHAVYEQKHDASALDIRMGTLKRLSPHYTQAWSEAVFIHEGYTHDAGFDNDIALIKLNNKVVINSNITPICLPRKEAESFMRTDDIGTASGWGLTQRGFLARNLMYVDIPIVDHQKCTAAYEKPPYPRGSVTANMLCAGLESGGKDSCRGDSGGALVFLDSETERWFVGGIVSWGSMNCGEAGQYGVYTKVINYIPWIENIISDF
Sequence of MASP-2 CCP2-SP (O00187 364-432 partner): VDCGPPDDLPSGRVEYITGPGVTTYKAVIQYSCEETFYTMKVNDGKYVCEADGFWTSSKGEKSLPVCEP

SMILES: Cc1nc(N)ccc1CNC(=O)[C@H](C)NC(=O)[C@H]1C[C@H](Cc2cccc(-c3ccccc3)c2)CN1 [compound 1406, (2R,4S)-4-([1,1′-Biphenyl]-3-ylmethyl)-N—((S)-1-(((6-amino-2-methylpyridin-3-yl)methyl)amino)-1-oxopropan-2-yl)pyrrolidine-2-carboxamide Dihydrochloric acid]
H-bond distance to MASP-2 ASP 627 atom OD2 (Table A1 (H-Bonds)): 3.22
H-bond distance to MASP-2 GLY 656 atom N (Table A1 (H-Bonds)): 3.28
H-bond distance to MASP-2 GLY 656 atom O (Table A1 (H-Bonds)): 2.76
H-bond distance to MASP-2 SER 654 atom O (Table A1 (H-Bonds)): 2.96
H-bond distance to MASP-2 SER 657 atom O (Table A1 (H-Bonds)): 2.78
van der Waals contact distance, MASP-2 amino acid atom to compound atom (Table A2): 3.74
van der Waals contact distance, MASP-2 ASP 526 atom C (Table A2-1): 3.55
van der Waals contact distance, MASP-2 ASP 526 atom CA (Table A2-1): 3.89
van der Waals contact distance, MASP-2 ASP 526 atom O (Table A2-1): 3.69
van der Waals contact distance, MASP-2 HIS 483 atom CD2 (Table A2-1): 3.7
van der Waals contact distance, MASP-2 HIS 483 atom NE2 (Table A2-1): 3.67
van der Waals contact distance, MASP-2 ALA 527 atom C (Table A2-2): 3.68
van der Waals contact distance, MASP-2 ALA 527 atom CA (Table A2-2): 3.83
van der Waals contact distance, MASP-2 amino acid atom to compound atom (Table A2-7: SER 628 (CB, O, OG)): 3.76
van der Waals contact distance, SER 654 C to compound atom (Table A2-11): 3.59
van der Waals contact distance, VAL 653 CG1 to compound atom (Table A2-11): 3.27
van der Waals contact distance TRP 655 atom CE3: 3.7
van der Waals contact distance TRP 655 atom CZ3: 3.51
van der Waals contact distance TRP 655 atom N: 3.85
Ligand-pharmacophore element distance, pharmacophore element C2: 0
Ligand-pharmacophore element distance, pharmacophore element C3: 0.12
Ligand-pharmacophore element distance, pharmacophore element C4: 0
Ligand-pharmacophore element distance, pharmacophore element C5: 0
Ligand-pharmacophore element distance, pharmacophore element C6: 0
Ligand-pharmacophore element distance, pharmacophore element C7: 0
Ligand-pharmacophore element distance, pharmacophore element CA1: 0.56
Ligand-pharmacophore element distance, pharmacophore element CA2: 0.42
Ligand-pharmacophore element distance, pharmacophore element CA3: 0
Ligand-pharmacophore element distance, pharmacophore element CA4: 1.59
Ligand-pharmacophore element distance, pharmacophore element CA5: 0
Ligand-pharmacophore element distance, pharmacophore element CA6: 0
d(C3,CA1) [1]: 2.86
d(CA1,N1)2 [1]: 1.38
d(CA1,O1) [1]: 4.36
d(CA1,O2) [1]: 4.00
d(H4,O1) [1]: 4.35
d(H4,O2) [1]: 3.89
d(O1,O2) [1]: 3.29
d(N2,CA2): 5.98
d(O2,H3): 4.44
d(O2,N2): 2.64
a(C3, CA1, O1) (Table A6-1 pharmacophore angle): 149.47
a(CA1, O1, O2) (Table A6-1 pharmacophore angle): 107.31
a(O1, O2, H4) (Table A6-1 pharmacophore angle): 133.28
a(N1, CA1, O1) b) (Table A6-1 pharmacophore angle): 173.92
a(O1, O2, H3): 147.38
a(O1, O2, N2): 140.17
a(O2, N2, CA2): 156.30
Pharmacophore torsion angle a(C3, CA1, O1, H4) [2]: 23.93
Pharmacophore torsion angle a(H4, O1, O2, H3) [2]: 50.99
Pharmacophore torsion angle a(H4, O1, O2, N2) [2]: 135.75
Pharmacophore torsion angle a(N1, CA1, O1, H4) [2]: −2.51
Pharmacophore torsion angle a(O1, H4, O2, CA1) [2]: −83.05
Pharmacophore torsion angle a(O1, O2, N2, CA2) [3]: 127.54
Pharmacophore torsion angle a(O1, O2, N2, CA4) [3]: 102.90

SMILES: Cc1nc(N)ccc1CNC(=O)[C@H](C)NC(=O)[C@H]1C[C@@H](c2ccccc2)CCN1CCC(=O)O [compound 1411, 3-((2R,4S)-2-(((S)-1-(((6-Amino-2-methylpyridin-3-yl)methyl)amino)-1-oxopropan-2-yl)carbamoyl)-4-phenylpiperidin-1-yl)propanoic acid Trifluoroacetate salt]
H-bond distance to MASP-2 ARG 630 atom NE (Table A1 (H-Bonds), ARG 630 NE): 2.66
H-bond distance to MASP-2 ASP 627 atom OD2 (Table A1 (H-Bonds)): 3.17
H-bond distance to MASP-2 GLY 656 atom N (Table A1 (H-Bonds)): 3.07
H-bond distance to MASP-2 SER 628 atom O (Table A1 (H-Bonds), SER 628 O): 3.2
H-bond distance to MASP-2 SER 654 atom O (Table A1 (H-Bonds)): 3.06
H-bond distance to MASP-2 SER 657 atom O (Table A1 (H-Bonds)): 2.61
van der Waals contact distance, MASP-2 amino acid atom to compound atom (Table A2): 3.8
van der Waals contact distance, MASP-2 HIS 483 atom CD2 (Table A2-1): 3.51
van der Waals contact distance, MASP-2 HIS 483 atom NE2 (Table A2-1): 3.46
van der Waals contact distance, MASP-2 GLY 528 atom CA (Table A2-2): 3.85
van der Waals contact distance, MASP-2 PHE 529 atom CE1 (Table A2-3): 3.69
van der Waals contact distance, VAL 653 CG1 to compound atom (Table A2-11): 3.52
van der Waals contact distance TRP 655 atom CE3: 3.6
van der Waals contact distance TRP 655 atom CZ3: 3.57
Ligand-pharmacophore element distance, pharmacophore element C2: 0.42
Ligand-pharmacophore element distance, pharmacophore element C3: 0.32
Ligand-pharmacophore element distance, pharmacophore element C4: 0
Ligand-pharmacophore element distance, pharmacophore element C5: 0
Ligand-pharmacophore element distance, pharmacophore element C6: 0
Ligand-pharmacophore element distance, pharmacophore element C7: 0
Ligand-pharmacophore element distance, pharmacophore element CA1: 0.71
Ligand-pharmacophore element distance, pharmacophore element CA2: 0.52
Ligand-pharmacophore element distance, pharmacophore element CA3: 0
Ligand-pharmacophore element distance, pharmacophore element CA4: 0
Ligand-pharmacophore element distance, pharmacophore element CA5: 0
Ligand-pharmacophore element distance, pharmacophore element CA6: 0
d(C3,CA1) [1]: 2.87
d(CA1,N1)2 [1]: 1.34
d(CA1,O1) [1]: 4.37
d(CA1,O2) [1]: 4.05
d(H4,O1) [1]: 4.34
d(H4,O2) [1]: 3.90
d(O1,O2) [1]: 3.50
d(N2,C2): 1.46
d(N2,CA2): 5.72
d(O2,H3): 4.13
d(O2,N2): 2.68
a(C3, CA1, O1) (Table A6-1 pharmacophore angle): 149.02
a(CA1, O1, O2) (Table A6-1 pharmacophore angle): 109.85
a(O1, O2, H4) (Table A6-1 pharmacophore angle): 130.04
a(N1, CA1, O1) b) (Table A6-1 pharmacophore angle): 173.43
a(O1, O2, H3): 142.75
a(O1, O2, N2): 140.47
a(O2, N2, C2): 130.32
a(O2, N2, CA2): 155.94
Pharmacophore torsion angle a(C3, CA1, O1, H4) [2]: 24.51
Pharmacophore torsion angle a(H4, O1, O2, H3) [2]: 55.16
Pharmacophore torsion angle a(H4, O1, O2, N2) [2]: 137.13
Pharmacophore torsion angle a(N1, CA1, O1, H4) [2]: −2.21
Pharmacophore torsion angle a(O1, H4, O2, CA1) [2]: −82.11
Pharmacophore torsion angle a(O1, O2, N2, C2) [2]: 117.46
Pharmacophore torsion angle a(O1, O2, N2, CA2) [3]: 127.52

H-bond distance to MASP-2 GLY 656 atom N (Table A1 (H-Bonds)): 3.13
H-bond distance to MASP-2 GLY 656 atom O (Table A1 (H-Bonds)): 2.75
H-bond distance to MASP-2 SER 654 atom O (Table A1 (H-Bonds)): 2.89
van der Waals contact distance, MASP-2 HIS 483 atom CD2 (Table A2-1): 3.73
van der Waals contact distance, MASP-2 HIS 483 atom NE2 (Table A2-1): 3.76
van der Waals contact distance, MASP-2 PHE 529 atom CE1 (Table A2-3): 3.77
van der Waals contact distance, MASP-2 PHE 529 atom CE2 (Table A2-3): 3.82
van der Waals contact distance, MASP-2 amino acid atom to compound atom (Table A2-5: TYR 607 (CE1, CE2, OH), PRO 608 (CD, CG), SER 611 (CA)): 3.73
van der Waals contact distance, MASP-2 amino acid atom to compound atom (Table A2-9 second part, ARG 630, AA atoms N, NE, NH1): 3.49
van der Waals contact distance, VAL 653 CG1 to compound atom (Table A2-11): 3.71
van der Waals contact distance TRP 655 atom CE3: 3.59
van der Waals contact distance TRP 655 atom CZ3: 3.73
van der Waals contact distance TRP 655 atom N: 3.68
Ligand-pharmacophore element distance, pharmacophore element C2: 0.26
Ligand-pharmacophore element distance, pharmacophore element C3: 0
Ligand-pharmacophore element distance, pharmacophore element C4: 0
Ligand-pharmacophore element distance, pharmacophore element C5: 0.2
Ligand-pharmacophore element distance, pharmacophore element C6: 0
Ligand-pharmacophore element distance, pharmacophore element C7: 0
Ligand-pharmacophore element distance, pharmacophore element CA1: 0.98
Ligand-pharmacophore element distance, pharmacophore element CA2: 0.18
Ligand-pharmacophore element distance, pharmacophore element CA3: 0
Ligand-pharmacophore element distance, pharmacophore element CA4: 0
Ligand-pharmacophore element distance, pharmacophore element CA5: 0
Ligand-pharmacophore element distance, pharmacophore element CA6: 0
d(CA1,C5) [1]: 3.47
d(CA1,O1) [1]: 5.49
d(CA1,O2) [1]: 4.76
d(CA1,O4) [1]: 1.77
d(H4,O1) [1]: 3.16
d(H4,O2) [1]: 3.59
d(O1,O2) [1]: 3.46
d(N2,C2): 1.51
d(N2,CA2): 5.79
d(O2,H3): 2.89
d(O2,N2): 2.65
a(C5, CA1, O1) (Table A6-1 pharmacophore angle): 151.25
a(CA1, O1, O2) (Table A6-1 pharmacophore angle): 97.80
a(O1, CA1, O4) (Table A6-1 pharmacophore angle): 65.77
a(O1, O2, H4) (Table A6-1 pharmacophore angle): 118.66
a(O1, O2, H3): 135.90
a(O1, O2, N2): 141.60
a(O2, N2, C2): 129.89
a(O2, N2, CA2): 155.75
Pharmacophore torsion angle a(C5, CA1, O1, H4) [2]: 6.40
Pharmacophore torsion angle a(H4, O1, O2, H3) [2]: 109.26
Pharmacophore torsion angle a(H4, O1, O2, N2) [2]: −171.69
Pharmacophore torsion angle a(O1, H4, O2, CA1) [2]: −96.26
Pharmacophore torsion angle a(O1, O2, N2, C2) [2]: 118.46
Pharmacophore torsion angle a(O1, O2, N2, CA2) [3]: 127.94
SMILES: C[C@H](NC(=O)[C@H]1C[C@@H](c2ccccc2)CCN1)C(=O)NCc1cnc2[nH]cc(Cl)c2c1 [compound 1433, (2R,4S)—N—((S)-1-(((3-Chloro-1H-pyrrolo[2,3-b]pyridin-5-yl)methyl)amino)-1-oxopropan-2-yl)-4-phenylpiperidine-2-carboxamide]
